# Measured values reported in patent US11534398B2, “Inhaled preparation of isoglycyrrhizic acid or salt thereof, and use in preparing drugs for treating respiratory system diseases” (priority 2016, dated 2022).
# “And” between values parts separate entries of the source, which are not always exact repeats. Equal entries are not always repeated. Where two headings read alike, the source gives them in different places. Marks after values point to notes of the source that are not given here.
# What was measured:
# [1] = Particle size of micronized magnesium isoglycyrrhizinate; format: physicochemical; conditions: micronized active ingredient
# Description: The magnesium isoglycyrrhizinate was micronized to obtain samples having the following different particle size ranges.
# [2] = test system: tracheal secretion in mice; assay: Mouse phenol red excretion assay (tracheal secretion); format: in vivo, ICR mice; conditions: 1.0 g/kg/d*6 d, i.g. 6 d
# Method: 50 male ICR mice, weighing about 21 g, were randomly divided into 5 groups: control group 1 (normal saline, NS), control group 2 (normal saline, NS), positive control group (ammonium chloride, 1 g/kg), drug group 1 (0.2 mg/ml of magnesium isoglycyrrhizinate liquid preparation for use in nebulizers, nebulizing for 30 min), drug group 2 (0.2 mg/ml of magnesium isoglycyrrhizinate liquid preparation for use in nebulizers, nebulizing for 15 min). The mice in control group 1 and the positive control group were intragastrically administered with the corresponding drugs (0.1 ml/10 g), the mice in control group 2 and the drug group 1 were aerosolizing administered with a nebulizer for 30 min, while the mice in drug group 2 were 15 min. The administration frequency was once a day for 6 consecutive days. Before the 6th administration, the mice were starved for 16-18 hours, only allowed for drinking water. After 30 minutes of administration, i.p. 1% phenol red physiological in saline solution 0.2 ml/10 g was injected and 30 minutes later, the mice were killed by cervical dislocation. […] Among them, each drug group was compared with the control group 2, ^ΔΔp<0.01.
# [3] = Pharmacokinetic evaluation after inhalation/intragastric administration to rats; format: in vivo, SD rats; conditions: for Cmax/Dose: in (µg/L)/(mg/kg); for AUC(0-t)/Dose: in (µg·h/L)/(mg/kg); for MRT last: read-out: MRT(0-t); for half-life: read-out: t½ z (converted)
# Method: Eight healthy male SD rats, weighing 223-252 g, were fed with standard formula granule feed of rats on time every day. The rats were fasted for 16 h before the experiment, and were refeeded at 4 h after the administration. Drinking water was free before, after and during the experiment. The rats were randomly divided into two groups, 4 rats in each group, and each rat was inhalation administrated with a single dose of magnesium isoglycyrrhizinate liquid preparation for use in nebulizers (2.5 mg/mL) and intragastric administrated with magnesium isoglycyrrhizinate inhaled preparation (5.0 mg/mL, the amount of isoglycyrrhizic acid is 4.486 mg/mL) respectively. Each rat in the inhalation administration group was given 200 μL of magnesium isoglycyrrhizinate liquid preparation for use in nebulizers (the actual dose given to the rat was 2.24-2.49 mg/kg). The dose in the intragastric administration group was 10.0 mg/kg. 0.2-0.3 mL of blood was taken from the fundus venous plexus before administration (0 h) and 0.0833 h, 0.25 h, 0.5 h, 1 h, 2 h, 4 h, 6 h, 8 h, 10 h, 24 h after administration. EDTA-K2 was used for anticoagulation, and the plasma was centrifuged. Then 50 μL was accurately measured, added with 10 μL internal standard solution to vortex and mixed, then added with 200 μL methanol, and mixed in high speed vortex mixer for 3 min, centrifuged for 10 min (4° C., 13000 rpm). The supernatant was collected, and 100 μL thereof was transferred to a 96-well plate. 50 μL of ultrapure water was added, vortexed, LC-MS/MS was used for detection, and the chromatogram was recorded.
# [4] = Body weight of COPD rats (cigarette smoke inhalation model); format: in vivo, SD rats; conditions: in g (unit assumed)
# Method: (§1) After modeling chronic obstructive pulmonary disease model induced by cigarette smoke inhalation, male SD rats were randomly divided into 6 groups according to the body weight: high dose tracheal instillation group (1.67 mg/ml of magnesium isoglycyrrhizinate, 100 μl/rat), low dose tracheal instillation group (1.67 mg/ml, 25 μl/rat), aerosolizing inhalation group, model group and blank control group, 10 rats in each group. During the intervention period, except that the control group and the model group were given normal saline, the other groups were successive administered every day, lasted for 15 days. During the administration period, the administration groups continued to be given with smoke stimulation after 30 minutes of administration, and the mental state, breathing, activity, hair luster, weight gain of the rats were recorded every day. 12 hour after the last administration, whole blood was taken from the rat eye for determination of white blood cell count and cell classified comparison. […] The right lung was ligated at the right main branch, and the left lung was lavaged with normal saline 2 ml×3 times. The recovery rate was about 80%. The bronchoalveolar lavage fluid (BALF) was prepared for the determination of white blood cell count and classified comparison (white blood cells, neutrophils, lymphocytes and monocytes). Finally, the right lung of rat was fixed with 10% formalin and HE stained, lung injury was observed under microscope, and pathological lesions were scored. All scores were accumulated, and the average score of each animal in each group was calculated (mean±SD).
# (§2) The experimental result data was expressed in the form of mean±SD. One-way ANOVA combined with Post-Hoc (LSD method) was used to analyze the differences between groups. Statistical significance was expressed as a P value of less than 0.05. The model group was compared with the blank control group, #p<0.05, #p<0.01; each administration group of magnesium isoglycyrrhizinate was compared with the model group, *p<0.05, **p<0.01.
# COPD rats [5] = assay: General symptoms of COPD rats (cigarette smoke inhalation model); format: in vivo, SD rats; conditions: high dose and low dose tracheal infusion and nebulization, versus model group
# Method: as §1, with “The recovery rate was about 80%. The bronchoalveolar lavage fluid (BALF) was prepared for the determination of white blood cell count and classified comparison (white blood cells, neutrophils, lymphocytes and monocytes).” left out
# COPD rats [6] = assay: White blood cell count and cell classified comparison in blood of COPD rats; format: in vivo, SD rats
# Method: as §1, §2
# COPD rats [7] = assay: White blood cell count and cell classified comparison in BALF of COPD rats; format: in vivo, SD rats
# Method: as §1, §2
# COPD rats [8] = assay: Pathological score of lung of COPD rats (HE staining); format: in vivo, SD rats; parameters: key to Pathological score, Comprehensive score / Pathological score, Emphysema / Pathological score, Inflammatory cell infiltration / Pathological score, Bronchial mucus secretion: lesion score 0 = none, 0.5 slight … 4 = very severe; group mean±SD
# Method: as §1
# Scoring indicators: (1) whether there was mucus and cell blockage in the small airway cavity; (2) whether the small airway epithelium had necrotic erosion; (3) small airway epithelial cells goblet cell metaplasia; (4) small airway epithelial cell squamous metaplasia; (5) small airway wall inflammation cell infiltration; (6) small airway wall fibrous connective tissue hyperplasia; (7) small airway wall smooth muscle hyperplasia; (8) small airway wall pigmentation; and (9) lung emphysema. Lesion score: according to the degree from light to heavy lesions, it was quantified as slight or very small amount for “0.5 point”, mild or small amount for “1 point”, moderate or more quantity amount for “2 points”, severe or plenty amount for “3 points”, very severe or large amount for “4 points”, and no obvious lesions for 0 point.
# as §2
# [9] = intravenous, 30.0 mg/kg, cited from earlier work
# [10] = male, SD, rat, plasma, inhaled or intranasal, inhalation, 2.4 mg/kg
# [11] = male, SD, rat, plasma, po, intragastric, 10 mg/kg
# [12] = aerosolizing inhalation, 0.4 mg/ml, 30 min
# [13] = high dose tracheal instillation, 1.67 mg/ml, 100 μl
# [14] = low dose tracheal instillation, 1.67 mg/ml, 25 μl
smiles,measurement,setting,value
"CC1(C)[C@@H](O[C@H]2O[C@H](C(=O)[O-])[C@@H](O)[C@H](O)[C@H]2O[C@@H]2O[C@H](C(=O)[O-])[C@@H](O)[C@H](O)[C@H]2O)CC[C@]2(C)[C@H]3C(=O)C=C4[C@H]5C[C@@](C)(C(=O)O)CC[C@]5(C)CC[C@@]4(C)[C@]3(C)CC[C@@H]12.[Mg+2] [Large particle size, magnesium isoglycyrrhizinate]",X10,[1],1.47 μm
same,X50,[1],5.75 μm
"CC1(C)[C@@H](O[C@H]2O[C@H](C(=O)[O-])[C@@H](O)[C@H](O)[C@H]2O[C@@H]2O[C@H](C(=O)[O-])[C@@H](O)[C@H](O)[C@H]2O)CC[C@]2(C)[C@H]3C(=O)C=C4[C@H]5C[C@@](C)(C(=O)O)CC[C@]5(C)CC[C@@]4(C)[C@]3(C)CC[C@@H]12.[Mg+2] [Medium particle size, magnesium isoglycyrrhizinate]",X10,[1],1.38 μm
same,X50,[1],5.08 μm
"CC1(C)[C@@H](O[C@H]2O[C@H](C(=O)[O-])[C@@H](O)[C@H](O)[C@H]2O[C@@H]2O[C@H](C(=O)[O-])[C@@H](O)[C@H](O)[C@H]2O)CC[C@]2(C)[C@H]3C(=O)C=C4[C@H]5C[C@@](C)(C(=O)O)CC[C@]5(C)CC[C@@]4(C)[C@]3(C)CC[C@@H]12.[Mg+2] [Small particle size, magnesium isoglycyrrhizinate]",X10,[1],0.58 μm
same,X50,[1],2.03 μm
Cl.N [ammonium chloride],Amount of phenol red excretion,[2],0.5924 ± 0.3781 µg/mL
"CC1(C)[C@@H](O[C@H]2O[C@H](C(=O)[O-])[C@@H](O)[C@H](O)[C@H]2O[C@@H]2O[C@H](C(=O)[O-])[C@@H](O)[C@H](O)[C@H]2O)CC[C@]2(C)[C@H]3C(=O)C=C4[C@H]5C[C@@](C)(C(=O)O)CC[C@]5(C)CC[C@@]4(C)[C@]3(C)CC[C@@H]12.[Mg+2] [magnesium isoglycyrrhizinate, magnesium (18α,20β)-20-carboxy-11-oxo-30-norolean-12-ene-3β-yl-2-O-β-D-pyranoglucuronyl-α-D-pyranoglucuronate]",CLz/F,"[3]; inhalation, 2.4 mg/kg",3.25 mL/min/kg and 3.25 ± 1.72 mL/min/kg
same,t½ z,"[3]; inhalation, 2.4 mg/kg",2.13 ± 0.69 h
same,Cmax/Dose,"[3]; inhalation, 2.4 mg/kg",1315 and 1315 ± 306
same,AUC(0-t)/Dose,"[3]; inhalation, 2.4 mg/kg",6108 and 6108 ± 2577
same,CLz/F,"[3]; intragastric, 10 mg/kg",2700 mL/min/kg
same,Cmax/Dose,"[3]; intragastric, 10 mg/kg",2.73
same,AUC(0-t)/Dose,"[3]; intragastric, 10 mg/kg",8.98
same,Cmax,"[3]; male, SD, rat, inhaled or intranasal, inhalation, liquid preparation for nebulizers 2.5 mg/mL, 200 μL, 2.4 mg/kg, plasma",3110 ng/mL
same,AUC(0-inf),[3]; [10],14600 ng·h/mL
same,AUC(0-t),[3]; [10],14600 ng·h/mL
same,Tmax,[3]; [10],0.81 h
same,MRT last,[3]; [10],3.52 h
same,half-life,[3]; [10],2.13 h
same,bioavailability,"[3]; male, SD, rat, plasma, inhaled, inhalation compared with intravenous administration (literature), read-out: Relative F %",87%
same,AUC(0-inf),[3]; [11],102 ng·h/mL
same,AUC(0-t),[3]; [11],89.8 ng·h/mL
same,Tmax,[3]; [11],1.75 h
same,MRT last,[3]; [11],2.35 h
same,half-life,[3]; [11],1.88 h
same,Cmax,"[3]; male, SD, rat, po, intragastric, 5.0 mg/mL, 10 mg/kg, plasma",27.3 ng/mL
same,"Body weight, End weight",[4]; [12],360.11 ± 18.84**
same,"Body weight, Initial weight",[4]; [12],319.22 ± 10.43**
same,"Body weight, End weight",[4]; [13],358.20 ± 16.17**
same,"Body weight, Initial weight",[4]; [13],324.6 ± 12.22**
same,"Body weight, End weight",[4]; [14],350.80 ± 27.79**
same,"Body weight, Initial weight",[4]; [14],317.60 ± 24.23**
same,General symptoms of COPD rats,COPD rats [5],relieved compared with the model group
same,Neutrophil count,COPD rats [6]; [12],123.67 ± 23.24** 10/μl
same,Percentage of neutrophils,COPD rats [6]; [12],11.05 ± 1.61** %
same,White blood cell count,COPD rats [6]; [12],1123.33 ± 170.54 10/μl
same,Neutrophil count,COPD rats [6]; [13],153.25 ± 40.12* 10/μl
same,Percentage of neutrophils,COPD rats [6]; [13],11.31 ± 3.55* %
same,White blood cell count,COPD rats [6]; [13],1395.13 ± 270.32 10/μl
same,Neutrophil count,COPD rats [6]; [14],155.13 ± 26.25* 10/μl
same,Percentage of neutrophils,COPD rats [6]; [14],13.80 ± 2.24* %
same,White blood cell count,COPD rats [6]; [14],1135.13 ± 155.73 10/μl
same,Neutrophil count,COPD rats [7]; [12],57.83 ± 20.78 10/μl
same,Percentage of neutrophils,COPD rats [7]; [12],38.83 ± 21.02%
same,White blood cell count,COPD rats [7]; [12],170.33 ± 55.17 10/μl
same,Neutrophil count,COPD rats [7]; [13],89.88 ± 21.57* 10/μl
same,Percentage of neutrophils,COPD rats [7]; [13],48.89 ± 9.69%
same,White blood cell count,COPD rats [7]; [13],184.38 ± 32.15 10/μl
same,Neutrophil count,COPD rats [7]; [14],66.38 ± 25.46 10/μl
same,Percentage of neutrophils,COPD rats [7]; [14],38.08 ± 12.86%
same,White blood cell count,COPD rats [7]; [14],172.50 ± 26.52 10/μl
same,"Pathological score, Bronchial mucus secretion",COPD rats [8]; [12],0.278 ± 0.363
same,"Pathological score, Comprehensive score",COPD rats [8]; [12],0.89 ± 0.65*
same,"Pathological score, Emphysema",COPD rats [8]; [12],0.222 ± 0.441
same,"Pathological score, Inflammatory cell infiltration",COPD rats [8]; [12],0.389 ± 0.333**
same,"Pathological score, Bronchial mucus secretion",COPD rats [8]; [13],0.050 ± 0.158**
same,"Pathological score, Comprehensive score",COPD rats [8]; [13],0.90 ± 0.52*
same,"Pathological score, Emphysema",COPD rats [8]; [13],0.300 ± 0.422
same,"Pathological score, Inflammatory cell infiltration",COPD rats [8]; [13],0.450 ± 0.550*
same,Lung pathology of COPD rats (in words),"COPD rats [8]; high dose, low dose tracheal infusion and aerosolizing inhalation groups","significantly reduce lung inflammation, improve bronchial wall function, reduce bronchial mucus secretion and improve emphysema"
same,"Pathological score, Bronchial mucus secretion",COPD rats [8]; [14],0.200 ± 0.350
same,"Pathological score, Comprehensive score",COPD rats [8]; [14],0.80 ± 0.50*
same,"Pathological score, Emphysema",COPD rats [8]; [14],0.150 ± 0.337
same,"Pathological score, Inflammatory cell infiltration",COPD rats [8]; [14],0.400 ± 0.394**
same,Cmax,"[9]; N = 6, literature",354500 ng/mL
same,AUC(0-t),[9]; literature,209591 ng·h/mL
same,AUC(0-t)/Dose,[9]; literature,6986
same,AUC(0-∞),[9]; literature,212295 ng·h/mL
same,CLz/F,[9]; literature,2355 mL/min/kg
same,Cmax/Dose,[9]; literature,11817
same,MRT(0-t),[9]; literature,1.71 h
same,Tmax,[9]; literature,5 min
same,t1/2 z,[9]; literature,2.06 h
